Assay results as given in PMC8237267 (Journal of Medicinal Chemistry, 2021).
Entries after “also recorded” stand apart in the source; their conditions may differ.

Experiments:
HDAC1 = target: T1, HDAC1 (Homo sapiens, UniProt Q13547); test: HDAC EMSA activity assay (Nanosyn); assay type: biochemical
T1 construct: The full-length human HDACs were recombinantly expressed and purified from SF9 insect cells; host or cells: SF9 insect cells
Protocol: (§1) The full-length human HDACs were recombinantly expressed and purified from SF9 insect cells. All compounds were serially prediluted in DMSO from a top concentration of 10 or 1 μM and introduced into the 384-well plates through an acoustic dispenser (Labcyte550) into the reaction buffer (100 mM HEPES, pH 7.5, 25 mM KCl, 0.1% BSA, 0.01% Triton X-100, and enzyme). The total concentration of DMSO was 1% in all wells. The deacetylation reaction was initiated by introduction of a FAM-labeled acetylated peptide substrate. The reaction was monitored through the change in the relative fluorescence intensity of the substrate and product peaks. The activity was determined as the product sum ratio (PSR): P/(S + P), where P = product peak height and S = substrate peak height. […] Inhibition curves (Pinh vs inhibitor concentration) were fitted by a four-parameter sigmoid dose–response model using XLfit software (IDBS) to determine the IC50 values.

HDAC10 = target: T2, HDAC10 (Homo sapiens, UniProt Q969S8); test: HDAC EMSA activity assay (Nanosyn); assay type: biochemical
T2 construct: The full-length human HDACs were recombinantly expressed and purified from SF9 insect cells; host or cells: SF9 insect cells
Protocol: as §1

HDAC5 = target: T3, HDAC5 (Homo sapiens, UniProt Q9UQL6); test: HDAC EMSA activity assay (Nanosyn); assay type: biochemical
T3 construct: The full-length human HDACs were recombinantly expressed and purified from SF9 insect cells; host or cells: SF9 insect cells
Protocol: as §1

HDAC7 = target: T4, HDAC7 (Homo sapiens, UniProt Q8WUI4); test: HDAC EMSA activity assay (Nanosyn); assay type: biochemical
T4 construct: The full-length human HDACs were recombinantly expressed and purified from SF9 insect cells; host or cells: SF9 insect cells
Protocol: as §1

HDAC9 = target: T5, HDAC9 (Homo sapiens, UniProt Q9UKV0); test: HDAC EMSA activity assay (Nanosyn); assay type: biochemical
T5 construct: The full-length human HDACs were recombinantly expressed and purified from SF9 insect cells; host or cells: SF9 insect cells
Protocol: as §1

HDAC8 = target: T6, HDAC8 (Homo sapiens, UniProt Q9BY41); test: HDAC EMSA activity assay (Nanosyn); assay type: biochemical; conditions: EMSA (Nanosyn); read-out: IC50 HDAC8
T6 construct: The full-length human HDACs were recombinantly expressed and purified from SF9 insect cells; host or cells: SF9 insect cells
T6 sequence (Q9BY41 1-377): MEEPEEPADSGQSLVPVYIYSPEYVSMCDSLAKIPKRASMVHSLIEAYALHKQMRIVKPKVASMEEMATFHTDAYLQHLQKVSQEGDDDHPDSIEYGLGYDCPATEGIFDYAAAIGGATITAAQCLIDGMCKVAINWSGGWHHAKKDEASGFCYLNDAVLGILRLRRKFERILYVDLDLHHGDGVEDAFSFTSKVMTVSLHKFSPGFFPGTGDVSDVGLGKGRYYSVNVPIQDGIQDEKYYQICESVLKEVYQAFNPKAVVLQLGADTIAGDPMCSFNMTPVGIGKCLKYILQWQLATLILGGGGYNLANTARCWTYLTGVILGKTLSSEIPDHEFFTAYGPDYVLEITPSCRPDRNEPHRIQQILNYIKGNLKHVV

[1] = Glutathione stability / reactivity assay; assay type: in vitro ADME; conditions: GSH adduct formation by LC/MS/MS; KT-531 up to 24 h
Protocol: Although covalent modification of HDAC6 was not observed (Figure S2), the PFBS group is susceptible to nucleophilic aromatic substitution by biological nucleophiles. A previously described high-throughput in vitro glutathione-reactivity assay was conducted, where compounds were incubated in the presence of glutathione (GSH) and the formation of a GSH-compound adduct was monitored over time via LC/MS/MS.[50]
Compound was added to PBS and 5 mM GSH to reach a final concentration of 5 μM. […] Samples were vortexed and centrifuged for 45 min at 3220g. Aliquots were diluted by ultrapure water, and used for LC/MS/MS analysis. Peak area ratios were determined and percent compounds remaining was calculated by the following equation: [drawing 1] where peak area ratio (t min) is the peak area ratio of control and test compounds at t min; peak area ratio0min is the peak area ratio of control and test compounds at the zero time point. In vitro half-life (t1/2) = −(0.693/k).

[2] = In vivo PK study in CD-1 male mice; conditions: mouse, plasma, CD-1 mice, IP, 20 mg/kg
[3] = test system: cleavage of PARP-1 and Caspase-3; test: Western blot of apoptosis markers in MV4-11 cells; assay type: cell-based; conditions: MV4-11, 6 h, 0.5 μM
Protocol: Briefly, MV4-11 cells were incubated with inhibitors prior to cell lysis with radioimmunoprecipitation assay (RIPA) buffer (20 mM Tris pH 7.4, 150 mM NaCl, 0.5% deoxycholate, 1% Triton X-100, and 0.1% sodium dodecyl sulfate (SDS)). Total protein content was determined through a BCA assay (ThermoFisher), resolved via a 4–20% polyacrylamide SDS gel, and transferred to a nitrocellulose membrane (Bio-Rad). The membranes were blocked with a 5% solution (skimmed milk powder in PBS-T). This was followed by incubation at 4 °C (overnight) with the following antibodies: acetylated α-tubulin mouse monoclonal (MABT868, EMD Millipore), acetylated histone H3 (Ac-Lys18, 07–354, Sigma), PARP-1 (ab227244, Abcam), apoptosis Western blot cocktail (136812, Abcam), cleaved PARP-1 (ab32561, Abcam), and HSC70 (sc-7298, Santa Cruz). Following overnight incubation, horseradish peroxidase (HRP)-conjugated goat anti-mouse IgG secondary antibody (7076, Cell Signaling) or HRP-linked anti-rabbit IgG secondary antibody (7074, Cell Signaling) was applied to the membrane in a 1:5000 dilution. The bands were visualized using clarity Western ECL substrate luminal/enhancer solution and peroxide solution. Western blotting analysis was carried out using Image lab software (Bio-Rad).[47],[50],[70]

[4] = test system: primary T-PLL patient samples; test: Ex vivo drug sensitivity (DSS) in primary T-PLL patient samples; assay type: cell-based, human; conditions: p = 0.0007, Wilcoxon test
Text: Primary T-PLL cells were isolated from peripheral blood (PB) of 10 T-PLL patients. All patients were diagnosed according to WHO criteria based on clinical features, immunophenotyping (flow cytometry and histochemisty; including TCL1 expression), and FISH/karyotyping.[71],[72] Samples were obtained from patients under IRB-approved protocols following written informed consent according to the Declaration of Helsinki. Collection and use of patient material have been approved for research purpose by the ethics committee of the University Hospital of Cologne (EudraCT-Nr.: #2008-001421-34 and AZ11-319) and Helsinki (303/13/03/01/2011).
PB mononuclear cells (PBMCs) of T-PLL samples were obtained by density gradient centrifugation (Histopaque; Sigma-Aldrich). All drug screening in primary T-PLL patient samples were conducted as previously described.[34],[73]

T1 sequence (Q13547 whole entry): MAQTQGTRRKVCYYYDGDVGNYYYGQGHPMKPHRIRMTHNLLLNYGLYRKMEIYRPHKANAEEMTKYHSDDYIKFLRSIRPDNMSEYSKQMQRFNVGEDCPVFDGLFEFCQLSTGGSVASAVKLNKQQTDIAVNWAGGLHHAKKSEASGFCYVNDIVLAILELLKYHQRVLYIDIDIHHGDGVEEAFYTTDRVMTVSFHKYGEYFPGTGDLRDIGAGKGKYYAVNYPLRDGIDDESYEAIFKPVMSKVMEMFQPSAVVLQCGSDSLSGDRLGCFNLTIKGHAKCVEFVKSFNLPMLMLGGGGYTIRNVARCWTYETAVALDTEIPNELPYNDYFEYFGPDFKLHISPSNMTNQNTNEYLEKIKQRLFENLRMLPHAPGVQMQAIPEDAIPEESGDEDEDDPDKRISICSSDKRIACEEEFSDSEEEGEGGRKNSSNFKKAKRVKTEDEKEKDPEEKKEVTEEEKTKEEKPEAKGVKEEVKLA
T2 sequence (Q969S8 whole entry): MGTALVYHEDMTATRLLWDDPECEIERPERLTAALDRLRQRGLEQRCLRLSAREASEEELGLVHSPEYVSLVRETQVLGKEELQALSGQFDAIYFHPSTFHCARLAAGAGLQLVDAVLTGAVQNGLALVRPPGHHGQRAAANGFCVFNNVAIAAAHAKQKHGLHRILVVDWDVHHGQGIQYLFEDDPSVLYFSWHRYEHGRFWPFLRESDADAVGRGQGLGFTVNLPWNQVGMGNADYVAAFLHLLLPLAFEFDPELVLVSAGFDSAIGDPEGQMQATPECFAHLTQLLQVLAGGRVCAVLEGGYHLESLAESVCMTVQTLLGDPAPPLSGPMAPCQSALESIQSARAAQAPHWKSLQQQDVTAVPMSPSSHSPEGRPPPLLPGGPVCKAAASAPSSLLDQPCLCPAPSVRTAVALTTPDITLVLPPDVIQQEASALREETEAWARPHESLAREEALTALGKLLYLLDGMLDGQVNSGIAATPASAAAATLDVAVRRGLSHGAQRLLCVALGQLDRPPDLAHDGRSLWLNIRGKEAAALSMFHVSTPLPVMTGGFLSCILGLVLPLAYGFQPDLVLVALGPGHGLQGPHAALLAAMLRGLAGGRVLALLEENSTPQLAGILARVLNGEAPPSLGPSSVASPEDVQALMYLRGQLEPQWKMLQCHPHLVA
T4 sequence (Q8WUI4 whole entry): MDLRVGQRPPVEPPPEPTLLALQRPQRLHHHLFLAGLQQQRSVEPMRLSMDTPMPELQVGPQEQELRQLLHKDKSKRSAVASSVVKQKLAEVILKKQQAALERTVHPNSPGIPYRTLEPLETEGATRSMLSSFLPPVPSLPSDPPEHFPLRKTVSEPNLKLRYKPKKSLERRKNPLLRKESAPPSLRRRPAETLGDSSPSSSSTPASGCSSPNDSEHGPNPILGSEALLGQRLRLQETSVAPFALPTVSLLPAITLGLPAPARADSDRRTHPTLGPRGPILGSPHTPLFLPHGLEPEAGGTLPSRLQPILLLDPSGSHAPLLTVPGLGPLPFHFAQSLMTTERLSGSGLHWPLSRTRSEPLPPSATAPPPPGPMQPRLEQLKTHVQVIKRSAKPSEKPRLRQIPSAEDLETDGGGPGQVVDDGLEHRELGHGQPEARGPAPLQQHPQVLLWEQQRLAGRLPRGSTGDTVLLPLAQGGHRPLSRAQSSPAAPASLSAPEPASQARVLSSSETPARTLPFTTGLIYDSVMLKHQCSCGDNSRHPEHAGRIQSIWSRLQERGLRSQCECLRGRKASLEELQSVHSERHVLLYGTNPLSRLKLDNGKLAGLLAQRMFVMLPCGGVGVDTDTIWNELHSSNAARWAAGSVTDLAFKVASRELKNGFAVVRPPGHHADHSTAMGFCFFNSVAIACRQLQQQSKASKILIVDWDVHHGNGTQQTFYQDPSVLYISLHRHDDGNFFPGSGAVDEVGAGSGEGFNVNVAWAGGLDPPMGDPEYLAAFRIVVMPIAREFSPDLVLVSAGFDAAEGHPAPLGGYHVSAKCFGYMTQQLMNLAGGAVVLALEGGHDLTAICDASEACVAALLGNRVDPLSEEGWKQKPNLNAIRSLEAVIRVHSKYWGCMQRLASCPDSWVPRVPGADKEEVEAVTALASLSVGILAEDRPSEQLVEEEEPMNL
T5 sequence (Q9UKV0 whole entry): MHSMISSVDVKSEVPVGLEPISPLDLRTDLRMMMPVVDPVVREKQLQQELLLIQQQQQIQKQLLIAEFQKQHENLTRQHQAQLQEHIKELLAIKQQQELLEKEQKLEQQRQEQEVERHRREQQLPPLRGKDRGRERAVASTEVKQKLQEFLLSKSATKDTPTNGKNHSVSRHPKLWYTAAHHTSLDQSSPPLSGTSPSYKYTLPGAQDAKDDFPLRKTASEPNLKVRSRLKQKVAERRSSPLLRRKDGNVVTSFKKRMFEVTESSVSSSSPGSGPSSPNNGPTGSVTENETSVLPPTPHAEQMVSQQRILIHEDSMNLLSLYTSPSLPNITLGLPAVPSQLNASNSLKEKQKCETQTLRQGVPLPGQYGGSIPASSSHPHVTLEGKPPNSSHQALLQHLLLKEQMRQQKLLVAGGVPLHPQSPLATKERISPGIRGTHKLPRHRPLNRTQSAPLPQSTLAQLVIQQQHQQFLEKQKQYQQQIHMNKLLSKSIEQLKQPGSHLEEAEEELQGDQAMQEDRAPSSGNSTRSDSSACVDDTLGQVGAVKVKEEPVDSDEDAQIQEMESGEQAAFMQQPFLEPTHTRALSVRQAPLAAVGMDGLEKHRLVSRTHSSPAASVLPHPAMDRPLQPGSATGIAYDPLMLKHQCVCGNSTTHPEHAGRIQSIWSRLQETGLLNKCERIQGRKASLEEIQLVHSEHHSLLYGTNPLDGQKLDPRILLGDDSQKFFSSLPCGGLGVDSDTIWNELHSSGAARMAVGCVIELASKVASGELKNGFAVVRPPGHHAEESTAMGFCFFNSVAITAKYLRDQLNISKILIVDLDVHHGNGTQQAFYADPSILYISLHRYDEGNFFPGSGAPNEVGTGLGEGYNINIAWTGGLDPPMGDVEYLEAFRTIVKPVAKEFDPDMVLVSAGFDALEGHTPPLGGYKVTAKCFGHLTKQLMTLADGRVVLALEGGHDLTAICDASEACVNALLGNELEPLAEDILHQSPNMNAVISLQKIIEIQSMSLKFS
T3 sequence (Q9UQL6 whole entry): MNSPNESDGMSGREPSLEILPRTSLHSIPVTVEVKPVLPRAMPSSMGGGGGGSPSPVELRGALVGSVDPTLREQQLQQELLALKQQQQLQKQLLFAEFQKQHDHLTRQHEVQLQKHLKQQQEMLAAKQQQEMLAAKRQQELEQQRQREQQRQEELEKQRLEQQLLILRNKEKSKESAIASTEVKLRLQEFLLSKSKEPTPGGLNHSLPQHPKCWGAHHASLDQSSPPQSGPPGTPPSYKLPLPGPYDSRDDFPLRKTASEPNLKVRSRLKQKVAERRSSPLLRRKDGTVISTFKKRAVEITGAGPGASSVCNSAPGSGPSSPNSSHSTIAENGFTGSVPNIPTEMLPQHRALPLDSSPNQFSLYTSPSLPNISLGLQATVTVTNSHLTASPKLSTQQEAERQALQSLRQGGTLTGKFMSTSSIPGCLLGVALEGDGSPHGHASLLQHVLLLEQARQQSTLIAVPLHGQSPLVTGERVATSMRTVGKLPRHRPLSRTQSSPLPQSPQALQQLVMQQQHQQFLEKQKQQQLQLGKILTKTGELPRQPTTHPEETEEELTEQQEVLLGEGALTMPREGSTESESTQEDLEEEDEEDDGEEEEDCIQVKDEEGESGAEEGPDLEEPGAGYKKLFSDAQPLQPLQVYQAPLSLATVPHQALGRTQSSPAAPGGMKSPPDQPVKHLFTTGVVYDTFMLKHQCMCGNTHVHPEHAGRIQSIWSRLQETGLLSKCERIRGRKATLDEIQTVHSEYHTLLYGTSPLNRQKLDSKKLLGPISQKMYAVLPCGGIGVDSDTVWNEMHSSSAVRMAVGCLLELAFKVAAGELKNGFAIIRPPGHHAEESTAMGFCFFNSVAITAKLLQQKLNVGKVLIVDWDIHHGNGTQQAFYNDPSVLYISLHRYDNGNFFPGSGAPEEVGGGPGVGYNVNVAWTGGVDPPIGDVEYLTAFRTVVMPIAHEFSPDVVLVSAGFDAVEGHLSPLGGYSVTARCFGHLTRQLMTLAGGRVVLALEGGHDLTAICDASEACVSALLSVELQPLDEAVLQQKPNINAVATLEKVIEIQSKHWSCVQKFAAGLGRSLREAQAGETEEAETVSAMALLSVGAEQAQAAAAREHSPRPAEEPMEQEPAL

In the case of O=C(NO)c1ccc(CN(C2CC2)S(=O)(=O)c2cc(F)c(F)c(F)c2F)cc1 [Compound 14, 4-(((N-Cyclopropyl-2,3,4,5-tetrafluorophenyl)sulfonamido)methyl)-N-hydroxybenzamide], the IC50 (HDAC1) is reported as over 1000 nM, the IC50 (HDAC10) is reported as over 1000 nM and the IC50 (HDAC5) is reported as over 1000 nM. For the same compound, the IC50 (HDAC7) was over 1000 nM, the IC50 (HDAC9) was over 1000 nM and the IC50 (HDAC8) was 334 nM. The “reactivity with glutathione” value [1] was “no discernible reactivity with GSH; also recorded: no discernible SNAr reaction with GSH”, the Cmax at 24 h [2] was 493 ng/mL and the MRT at 24 h [2] was 2.1 ± 0.5 h. The AUC(0-t) at 24 h ([2]; read-out: In vivo AUClast (overall exposure)) was 1580 ng·h/mL, the half-life ([2]; read-out: In vivo t1/2) was 1.05 h and the “cleavage of PARP-1 and Caspase-3” value [3] was “Cleavage of PARP-1 and Caspase-3”. The “drug response (DSS) versus vorinostat (SAHA)” value [4] was “more potent drug response”.
